Measured values: PubChem BioAssay (NCI)
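Exposure lasted 48 hours, with cells grown in 96-well plates and compounds tested at five concentrations. At the GI50, growth is halved. At the TGI there is no net growth.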

Experiments:
Test in all cases: NCI tumour cell line growth inhibition, 48 h
[1] = system: SNB-75 CNS
[2] = system: ACHN renal
[3] = system: HCC-2998 colon
[4] = system: SF-268 CNS
[5] = system: HCT-116 colon
[6] = system: SK-OV-3 ovarian
[7] = system: SF-539 CNS
[8] = system: RPMI-8226 leukemia
[9] = system: UO-31 renal
[10] = system: PC-3 prostate
[11] = system: IGROV1 ovarian
[12] = system: SN12C renal
[13] = system: SF-295 CNS
[14] = system: COLO 205 colon
[15] = system: BT-549 breast
[16] = system: OVCAR-4 ovarian
[17] = system: T-47D breast
[18] = system: 786-0 renal
[19] = system: MCF7 breast
[20] = system: OVCAR-3 ovarian
[21] = system: HOP-92 NSCLC
[22] = system: HL-60(TB) leukemia
[23] = system: A549 NSCLC
[24] = system: U251 CNS
[25] = system: RXF 393 renal
[26] = system: NCI-H23 lung
[27] = system: NCI-H460 lung
[28] = system: MDA-MB-435

SMILES: Clc1ccc(Nc2nnc(CNc3ccccc3)c3ccccc23)cc1
- GI50 [1]: 871 nM
- TGI [1]: 7.05 µM
- GI50 [2]: 3.1 µM
- TGI [2]: > 25 µM
- GI50 [3]: 4.85 µM
- TGI [3]: 15.9 µM
- GI50 [4]: 3.28 µM
- TGI [4]: 14.5 µM
- GI50 [5]: 1200 nM
- TGI [5]: 5.02 µM
- GI50 [6]: 3.17 µM
- TGI [6]: 11.4 µM
- GI50 [7]: 3.67 µM
- TGI [7]: 8.09 µM
- GI50 [8]: 2100 nM
- TGI [8]: 7.71 µM
- GI50 [9]: 1360 nM
- TGI [9]: 6.66 µM
- GI50 [10]: 1910 nM
- TGI [10]: 14.4 µM
- GI50 [11]: 1930 nM
- TGI [11]: 10.7 µM
- GI50 [12]: 3.95 µM
- TGI [12]: 18.9 µM
- GI50 [13]: 2980 nM
- TGI [13]: 8.77 µM
- GI50 [14]: 915 nM
- TGI [14]: 5.39 µM
- GI50 [15]: 2930 nM
- TGI [15]: 8.2 µM
- GI50 [16]: 3000 nM
- TGI [16]: > 25 µM
- GI50 [17]: 1170 nM
- TGI [17]: 8.28 µM
- GI50 [18]: 4.01 µM
- TGI [18]: 12.5 µM
- GI50 [19]: 2680 nM
- TGI [19]: 11.1 µM
- GI50 [20]: 3.51 µM
- TGI [20]: 8.69 µM
- GI50 [21]: 777 nM
- TGI [21]: 6.3 µM
- GI50 [22]: 3.71 µM
- TGI [22]: 13 µM
- GI50 [23]: 3.17 µM
- TGI [23]: 20 µM
- GI50 [24]: 3.28 µM
- TGI [24]: 7.33 µM
- GI50 [25]: 2600 nM
- TGI [25]: 8.12 µM
- GI50 [26]: 2500 nM
- TGI [26]: 16.4 µM
- GI50 [27]: 3.21 µM
- TGI [27]: 9.97 µM
- GI50 [28]: 1470 nM
- TGI [28]: 7.88 µM
